Assay results taken from publication PMC6001238, “Iterative Chemical Engineering of Vancomycin Leads to Novel Vancomycin Analogs With a High in Vitro Therapeutic Index” (Frontiers in Microbiology, 2018).
In brackets after ≈: the same amount, converted by molar mass. Where two headings read alike, the source gives them in different places.

How the values were obtained:
[1] = test system: 33 clinical VRE isolates; assay: MIC against a set of 33 clinical VRE isolates (range, MIC50, TI); format: cell-based, Enterococcus faecalis
How it was run: (§1)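 Following CLSI antimicrobial susceptibility standards, organisms were tested by broth microdilution. Controls comprised ultrapure water plus broth left uninoculated. For a single condition, 10 μM vancomycin (final) accompanied the analog or control agent.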

[2] = test system: Murine leukemia (L1210) cells; assay: Cytostatic activity, L1210 cell proliferation; format: cell-based; settings: mean ± SD of three experiments; highest concentration tested 250 µM; 2 days; read-out: Toxicity (IC50) L1210
How it was run: (§2)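 Readout: Coulter cell number after drug exposure at 37°C. Durations differ by line (L1210 2 days; CEM 3 days; HeLa 4 days). Stock suspension 300,000–500,000 cells/mL, diluted by mixing with compound. Endpoint: IC50 vs negative control.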

[3] = test system: VE 150 (VanB); assay: MIC, VanB-type VRE strain VE 150; format: cell-based, Enterococcus; settings: VE 150, VanB; read-out: MIC
How it was run: as §1

[4] = test system: E. faecalis VRE 37; assay: MIC, broth microdilution, vancomycin-resistant E. faecalis VRE 37 (VanA); format: cell-based, Enterococcus faecalis
How it was run: as §1

[5] = test system: VE 157 (VanB); assay: MIC, VanB-type VRE strain VE 157; format: cell-based, Enterococcus; settings: VE 157, VanB; read-out: MIC
How it was run: as §1

[6] = test system: MRSA KS89; assay: MIC, broth microdilution, MRSA KS89; format: cell-based, Staphylococcus aureus
How it was run: as §1

[7] = test system: VE 149 (VanB); assay: MIC, VanB-type VRE strain VE 149; format: cell-based, Enterococcus; settings: VE 149, VanB; read-out: MIC
How it was run: as §1

[8] = test system: E. faecalis VRE 53; assay: MIC, broth microdilution, vancomycin-resistant E. faecalis VRE 53 (VanA); format: cell-based, Enterococcus faecalis
How it was run: as §1

[9] = test system: Clostridium difficile AIU ribotype 027; assay: MIC, plate drop assay, C. difficile AIU ribotype 027; format: cell-based; settings: C. difficile AIU ribotype 027
How it was run: (§3)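 Twofold dilution series of test compounds were spotted onto C. difficile lawns in 0.4% BHI agar containing added calcium and magnesium salts. After overnight anaerobic incubation at 37°C, growth inhibition was scored by spot clearing; triplicate runs, ultrapure water negative control.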

[10] = test system: Clostridium difficile ATJ ribotype 014/20; assay: MIC, plate drop assay, C. difficile ATJ ribotype 014/20; format: cell-based; settings: C. difficile ATJ ribotype 014/20
How it was run: as §3

[11] = test system: VE 148 (VanB); assay: MIC, VanB-type VRE strain VE 148; format: cell-based, Enterococcus; settings: VE 148, VanB; read-out: MIC
How it was run: as §1

[12] = test system: MRSA KS1; assay: MIC, broth microdilution, MRSA KS1; format: cell-based, Staphylococcus aureus
How it was run: as §1

[13] = test system: L1210, CEM and HeLa cell lines; assay: Cytostatic activity, average or summary over L1210, CEM and HeLa; format: cell-based
How it was run: as §2

[14] = test system: VE 152 (VanB); assay: MIC, VanB-type VRE strain VE 152; format: cell-based, Enterococcus; settings: VE 152, VanB; read-out: MIC
How it was run: as §1

[15] = test system: S. aureus VRSA; assay: MIC, broth microdilution, vancomycin-resistant S. aureus (VRSA); format: cell-based, Staphylococcus aureus
How it was run: as §1

[16] = test system: MRSA; assay: Minimum bactericidal concentration against MRSA; format: cell-based, Staphylococcus aureus
Description: Plates were incubated overnight at 37°C and colony growth was inspected.

[17] = test system: S. aureus VISA/HIP5827; assay: MIC, broth microdilution, vancomycin-intermediate S. aureus VISA HIP5827; format: cell-based, Staphylococcus aureus; settings: VISA/HIP5827; ratio of MIC of vancomycin and MIC of analogue
How it was run: as §1

[18] = test system: E. faecalis VRE 6; assay: MIC, broth microdilution, vancomycin-resistant E. faecalis VRE 6 (VanA); format: cell-based, Enterococcus faecalis
How it was run: as §1

[19] = test system: S. aureus VSSA (ATCC 6538); assay: MIC, broth microdilution, vancomycin-sensitive S. aureus (VSSA/MSSA, ATCC 6538); format: cell-based, Staphylococcus aureus
How it was run: as §1

[20] = test system: E. faecalis VSE 1; assay: MIC, broth microdilution, vancomycin-sensitive E. faecalis (VSE 1); format: cell-based, Enterococcus faecalis
How it was run: as §1

[21] = test system: MRSA KS6; assay: MIC, broth microdilution, MRSA KS6; format: cell-based, Staphylococcus aureus
How it was run: as §1

[22] = test system: MRSA KS2; assay: MIC, broth microdilution, MRSA KS2; format: cell-based, Staphylococcus aureus
How it was run: as §1

[23] = test system: E. faecalis VRE 29; assay: MIC, broth microdilution, vancomycin-resistant E. faecalis VRE 29 (VanA); format: cell-based, Enterococcus faecalis
How it was run: as §1

[24] = test system: human T-lymphocyte (CEM) cells; assay: Cytostatic activity, CEM cell proliferation; format: cell-based; settings: mean ± SD of three experiments; highest concentration tested 250 µM; 3 days; read-out: Toxicity (IC50) CEM
How it was run: as §2

[25] = test system: human cervix carcinoma (HeLa) cells; assay: Cytostatic activity, HeLa cell proliferation; format: cell-based; settings: mean ± SD of three experiments; highest concentration tested 250 µM; 4 days; read-out: Toxicity (IC50) HeLa
How it was run: as §2

[26] = test system: VE 82 (VanC1); assay: MIC, VanC1-type VRE strain VE 82; format: cell-based, Enterococcus gallinarum; settings: VE 82, VanC1; read-out: MIC
How it was run: as §1

[27] = test system: 24 clinical MRSA isolates; assay: MIC against a set of 24 clinical MRSA isolates (range, MIC50, TI); format: cell-based, Staphylococcus aureus
How it was run: as §1

CNC(CC(C)C)C(=O)NC1C(=O)NC(CC(N)=O)C(=O)NC2C(=O)NC3C(=O)NC(C(=O)NC(C(=O)NCCCNC(=O)c4cc5ccccc5[nH]4)c4cc(O)cc(O)c4-c4cc3ccc4O)C(O)c3ccc(c(Cl)c3)Oc3cc2cc(c3OC2OC(CO)C(O)C(O)C2OC2CC(C)(N)C(O)C(C)O2)Oc2ccc(cc2Cl)C1O (stereo not shown) [Vanc-24]
MIC Range ([1]; 33 clinical VRE isolates): 3.13 to 50 µM
TI (IC50/MIC50) ([1]; in vitro therapeutic index, VRE): 26
MIC50 ([1]; median MIC, 33 clinical VRE isolates, read-out: MIC50): 6.25 µM (≈ 10.3 µg/mL)
IC50 [2]: 164 ± 20 µM
MIC [3]: 1.56 µM (≈ 2.57 µg/mL)
MIC ([4]; Enterococcus faecalis VRE 37 (vancomycin-resistant), read-out: MIC): 6.25 µM (≈ 10.3 µg/mL)
MIC-fold improvement vs. vancomycin ([4]; VRE 37, ratio of MIC of vancomycin and MIC of analogue): 64
MIC [5]: 1.56 µM (≈ 2.57 µg/mL)
MIC-fold improvement vs. vancomycin ([6]; MRSA KS8, ratio of MIC of vancomycin and MIC of analogue): 2
MIC ([6]; Staphylococcus aureus MRSA KS8, read-out: MIC): 0.39 µM (≈ 0.643 µg/mL)
MIC [7]: 1.56 µM (≈ 2.57 µg/mL)
MIC ([8]; Enterococcus faecalis VRE 53 (vancomycin-resistant), read-out: MIC): 25 µM (≈ 41.2 µg/mL)
MIC-fold improvement vs. vancomycin ([8]; VRE 53, ratio of MIC of vancomycin and MIC of analogue): 16
MIC-fold improvement vs. vancomycin [9]: 14
MIC-fold improvement vs. vancomycin [10]: 11
MIC [11]: 3.13 µM (≈ 5.16 µg/mL)
MIC-fold improvement vs. vancomycin ([12]; MRSA KS1, ratio of MIC of vancomycin and MIC of analogue): 2
MIC ([12]; Staphylococcus aureus MRSA KS1, read-out: MIC): 0.39 µM (≈ 0.643 µg/mL)
IC50 ([13]; average IC50 used for TI in Table S5, >250 entered as 250, read-out: IC50): 165 µM
IC50 ([13]; average of L1210, CEM and HeLa, read-out: Toxicity (IC50) Average): 165 µM
MIC [14]: 1.56 µM (≈ 2.57 µg/mL)
MIC ([15]; Staphylococcus aureus VRSA, read-out: MIC): 1.56 µM (≈ 2.57 µg/mL)
MIC-fold improvement vs. vancomycin ([15]; VRSA, ratio of MIC of vancomycin and MIC of analogue): 64
MBC relative to MIC [16]: MBC equaling their MIC values
MIC-fold improvement vs. vancomycin [17]: 32
MIC ([18]; Enterococcus faecalis VRE 6 (vancomycin-resistant), read-out: MIC): 0.78 µM (≈ 1.29 µg/mL)
MIC-fold improvement vs. vancomycin ([18]; VRE 6, ratio of MIC of vancomycin and MIC of analogue): 256
MIC ([19]; Staphylococcus aureus VSSA, read-out: MIC): 0.20 µM (≈ 0.33 µg/mL)
MIC-fold improvement vs. vancomycin ([19]; VSSA, ratio of MIC of vancomycin and MIC of analogue): 4
MIC ([20]; Enterococcus faecalis VSE 1 (vancomycin-sensitive), read-out: MIC): 0.20 µM (≈ 0.33 µg/mL)
MIC-fold improvement vs. vancomycin ([20]; VSE 1, ratio of MIC of vancomycin and MIC of analogue): 8
MIC-fold improvement vs. vancomycin ([21]; MRSA KS6, ratio of MIC of vancomycin and MIC of analogue): 2
MIC ([21]; Staphylococcus aureus MRSA KS6, read-out: MIC): 0.39 µM (≈ 0.643 µg/mL)
MIC-fold improvement vs. vancomycin ([22]; MRSA KS2, ratio of MIC of vancomycin and MIC of analogue): 4
MIC ([22]; Staphylococcus aureus MRSA KS2, read-out: MIC): 0.20 µM (≈ 0.33 µg/mL)
MIC ([23]; Enterococcus faecalis VRE 29 (vancomycin-resistant), read-out: MIC): 12.5 µM (≈ 20.6 µg/mL)
MIC-fold improvement vs. vancomycin ([23]; VRE 29, ratio of MIC of vancomycin and MIC of analogue): 32
IC50 [24]: 248 ± 3 µM
IC50 [25]: 83 ± 9 µM
MIC [26]: 0.39 µM (≈ 0.643 µg/mL)
MIC Range ([27]; 24 clinical MRSA isolates): 0.10 to 0.78 µM
TI (IC50/MIC50) ([27]; in vitro therapeutic index, MRSA): 825
MIC50 ([27]; median MIC, 24 clinical MRSA isolates, read-out: MIC50): 0.20 µM (≈ 0.33 µg/mL)
